Results from the NIST ThermoML archive (doi:10.1021/je200784y).
Numbers after ± are expanded uncertainties.

Details: Liquid, Ebulliometric method (Recirculating still)

CCOC(=O)OCC [diethyl carbonate]
Details	vapor or sublimation pressure [kPa]
354.68 K	22.56 ± 0.11
357.44 K	25.03 ± 0.11
359.95 K	27.54 ± 0.11
362.26 K	29.99 ± 0.11
364.46 K	32.51 ± 0.11
366.57 K	35.05 ± 0.11
368.45 K	37.52 ± 0.11
370.28 K	40.03 ± 0.11
372.04 K	42.49 ± 0.12
373.73 K	45.05 ± 0.12
375.26 K	47.47 ± 0.12
376.81 K	50.04 ± 0.12
378.22 K	52.46 ± 0.12
379.67 K	55.03 ± 0.12
381.03 K	57.56 ± 0.13
382.32 K	59.95 ± 0.13
383.6 K	62.52 ± 0.13
384.81 K	64.97 ± 0.13
385.98 K	67.44 ± 0.13
387.13 K	70.02 ± 0.13
388.28 K	72.51 ± 0.14
389.32 K	74.96 ± 0.14
390.35 K	77.43 ± 0.14
391.39 K	79.97 ± 0.14
392.45 K	82.52 ± 0.14
393.34 K	84.84 ± 0.15
394.36 K	87.52 ± 0.15
395.23 K	89.81 ± 0.15
396.21 K	92.53 ± 0.15
397.03 K	94.89 ± 0.15
397.96 K	97.54 ± 0.15
398.81 K	100.03 ± 0.16
399.27 K	101.38 ± 0.16
